Results published in patent publication US8158811B2, “Unsaturated fatty hydroxy acid derivatives and the dermocosmetologic use thereof” (Pierre Fabre Dermo-Cosmetique, priority 2005, dated 2012).

Legend:
Interleukin 8 = assay: release of Interleukin 8 by keratinocytes NHK stimulated with PMA + calcium ionophore A23187 (ELISA); assay type: cell-based, human; conditions: 3 μg/ml, keratinocytes, PMA + A23187 6 hours
Method: In this study, carried out using 96 well plates, we evaluated the activity of hydroxyl alkine acids on the production of Interleukin 8 produced in the keratinocytes by phorbol ester PMA and calcium ionophore A23187.
A suspension of keratinocytes in supplemented KSFM was divided between 96 well plates (3.10^4 cells/wells) and incubated for 16 hours at 37° C. under an atmosphere of 5% CO2. The keratinocytes were then rinsed with PBS in order to eliminate non adhering cells then exposed to the products to be tested included in non supplemented KSFM (which could interfere with the assay).
The concentration tested in culture was 3 μg/ml. This was retained after a preliminary test to evaluate cytotoxicity (neutral red) and is not cytotoxic.
3 wells were used for each treatment. Cells were preincubated for 60 minutes with the products to be tested then stimulated, in parallel to negative controls without stimulant: Phorbol Myristate Acetate (PMA) 1 μm+Calcium ionophore (A23187) 0.1 μm.
Incubation for 6 hours at 37° C. in a humid air atmosphere containing 5% CO2.
The culture medium for each of the wells was recovered, centrifuged at 3000 rpm and stored at −80° C.
Cytokine assay: IL8 was assayed using the ELISA kit immunoenzyme method (immunotech).
The results are given as percentage activity/stimulated control.
The compounds according to the invention were evaluated in terms of anti-inflammatory activity on the release of Interleukin 8 by human keratinocytes NHK stimulated by phorbol ester PMA+calcium ionophore A23187.

PAR-2 receptors = molecular target: T1, PAR-2 receptors (Homo sapiens, UniProt P55085); assay: calcium flux induced by trypsin stimulation of PAR-2 receptors in HaCaT keratinocytes (Fluo-4/AM); assay type: cell-based; conditions: trypsin 10 nM
T1 construct: PAR-2 receptors for trypsin present in human keratinocytes from the HaCaT line; endogenous in cells; host or cells: HaCaT human keratinocytes
T1 sequence (P55085 26-397): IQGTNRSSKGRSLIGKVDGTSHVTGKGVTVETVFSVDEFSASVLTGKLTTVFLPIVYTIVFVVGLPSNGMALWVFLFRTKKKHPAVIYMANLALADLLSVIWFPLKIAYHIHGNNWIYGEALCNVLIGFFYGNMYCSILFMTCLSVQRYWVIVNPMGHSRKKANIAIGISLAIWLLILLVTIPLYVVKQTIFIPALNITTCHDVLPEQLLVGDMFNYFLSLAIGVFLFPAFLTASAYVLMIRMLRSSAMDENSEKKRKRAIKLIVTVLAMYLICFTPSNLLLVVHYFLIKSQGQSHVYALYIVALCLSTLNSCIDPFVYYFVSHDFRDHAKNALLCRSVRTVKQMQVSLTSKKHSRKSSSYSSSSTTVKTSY
Source text: We therefore considered evaluating anti-PAR-2 activity of hydroxyl acid derivatives of formula I on the influx of intracellular calcium induced after specific stimulation by PAR-2 receptors for trypsin present in human keratinocytes from the HaCaT line.
This technique is based on the use of an esterified fluorescent probe by an AM group which facilitates its penetration by passive diffusion into the cell. The probe used is Fluo-4/AM. Only the de-esterified form bound to the calcium ion is excitable in fluorescence (at 485 nm) and emits at 535 nm.
In vitro, at the cell level, specific stimulation of the PAR-2 receptors by trypsin leads to mobilisation of intra and extracellular calcium detected with the aid of the fluorescent probe.

transglutaminase 1 (TG1) = assay: keratinocyte differentiation, real-time RT-PCR of transglutaminase 1 transcripts; assay type: cell-based, human; conditions: NHK, 48 hours
Method: (§1) Normal human keratinocytes (NHK) proliferate and differentiate in vitro, forming stratified layers which mimic the basal organisation of the skin. Extracellular calcium concentrations in excess of 0.1 mM initiate a cascade of genome and non-genome events which take the keratinocytes from a proliferative phase towards a differentiation phase. Keratinocyte differentiation can then be evaluated by studying the expression of several markers such as keratins 1 and 10, transglutaminase 1, desaturase DES2, involucrine, FATP4 and ABCG1 transporters. We therefore evaluated the effect of certain hydroxyalcene carboxylic acids in an in vitro culture model.
(§2) Normal human keratinocytes are isolated from skin explants. They are cultured in KSFM medium (Gibco) with a low calcium content (0.1 mM) containing 25 μg/ml of BPE (bovine pituitary extract) and […] of EGF (epithelium growth factor). 24 hours after culturing, differentiation is triggered by the addition of calcium (final concentration 1.2 mM). The active ingredients are added or not at the same time as calcium at concentrations of 100 and 1 μg/ml in order to determine whether or not they have a potentialising effect on differentiation. Cells were then analysed 48 hours after the addition of calcium and these products.
(§3) Total RNA was extracted under cold conditions from keratinocytes.
(§4) After reverse transcription of mRNA into cDNA, PCRs were made up in 96 well plates (iCycler quantitative PCR apparatus, BioRad). Expression of transcripts of transglutaminase, desaturase (DES2), ABCG1 and FATP4 were standardized with respect to the expression of reference genes (GAPDH, UBC, HPRT).

[1] = tested on: membrane lipids, fibroblast line L929; assay: TBARS test, lipid peroxidation after H2O2/Fe2+/Fe3+; assay type: cell-based, murin; conditions: 0.02 ng/ml, pretreated 16 hours
Source text: In order to evaluate membrane changes, we measured lipid peroxidation by in vitro assay of complexes between the products of lipid oxidation and thiobarbituric acid. These complexes are called TBARS (thiobarbituric acid reactive substances) and give the test its name: TBARS Test.
In order to mimic chemical oxidative stress, we treated a fibroblast line (L929) with a complex consisting of hydrogen peroxide (H2O2) and iron (Fe^2+/Fe^3+) thus reconstituting the Fenton reaction which is the source of oxygenated free radicals and particularly the hydroxyl radical (OH°) (D. A Vessey et al. 1992): H2O2+Fe^2+→OH°+OH^−+Fe^3+
The products were evaluated on a murin fibroblast line L929. Cells were pretreated with different concentrations of the product for 16 hours and were then stimulated with the H2O2/Fe^2+/Fe^3+ complex (200 μM−1 mM) for 1 hour. • Stock solutions: 100 mg/ml ethanol, 4° C. • Final solutions: 0.02 ng/ml.
Peroxidation of membrane lipids was analysed by measuring TBARS (Protocol ref. PLN°2, according to Morliere et al, 1991).
[…]. TBARS assays are therefore expressed in pmole/μg of protein. Proteins and TBARS are assayed in the intracellular medium.
Using the TBARS calculation in pmole/μg protein, we calculated the protective efficacy of various products against the oxidation of lipid membranes.
Four separate experiments were carried out. Several compounds were evaluated in the course of these experiments (the test only allows 10 molecules to be evaluated at one time). The compounds were evaluated several times and were chosen as a function of the results obtained in another test which also measured anti-radical activity (assay test for activated oxygen species).
The model used in this experiment (Fenton reaction) triggers considerable lipid peroxidation of the L929 fibroblasts. This massive release of the hydroxyl radical OH° thus generates oxidative stress in the cells, particularly in the membranes. However, in this type of oxidative reaction, the products resulting from lipid peroxidation are internalized in the cells and TBARS are therefore assayed in the intracellular medium.

ABCG1 = assay: keratinocyte differentiation, real-time RT-PCR of ABCG1 transcripts; assay type: cell-based, human; conditions: NHK, 48 hours
Method: as §1, §2, §3, §4

FATP4 = assay: keratinocyte differentiation, real-time RT-PCR of FATP4 transcripts; assay type: cell-based, human; conditions: NHK, 48 hours
Method: as §1, §2, §3, §4

desaturase DES2 = assay: keratinocyte differentiation, real-time RT-PCR of DES2 transcripts; assay type: cell-based, human; conditions: NHK, 48 hours
Method: as §1, §2, §3, §4

[2] = tested on: intracellular AOSs, fibroblast line L929; assay: in vitro assay of intracellular AOSs (H2DCF-DA probe) after H2O2/iron oxidative stress; assay type: cell-based, murin; conditions: Mus musculus; 0.2 ng/ml, pre-incubation 3 h, L929; read-out: Percentage inhibition of the intracellular production of AOS
Source text: We set up an in vitro study model of oxidative stress induced by H2O2/iron as H2O2 generates huge amounts of intracellular AOSs as a result of a chain reaction triggered by oxidation of membrane lipids.
This technique is based on the use of a fluorescent probe, 6-carboxy-2′,7′-dichlorodihydro fluorescein diacetate, di (acetoxymethyl ester) (H2DCF-DA) which once it penetrates into the cell is deacetylated by intracellular esterases and thus forms H2DCF. This product is oxidized by intracellular AOSs into a highly fluorescent compound: 2′,7′-dichlorofluorescein (DCF) (Suematsu M et al., 1996, Free Radicals Practical Approach, Punchard ed. P 83-99).
The materials and methods used for in vitro assay of intracellular AOSs are given below. • a) Cell tool • Cutaneous murin fibroblast cell line L929. • b) Materials • 96 well flat based microplate. • Cytofluor II cytofluorameter: Ref. PERCEPTIVE BIOSYSTEMS. • c) Reagents • Cell culture reagents: • Dulbecco's Modified Eagle Medium as the culture medium (DMEM) • Foetal calf serum • Phosphate buffer PBS pH 7.4 • Trypsin EDTA (1X) Fluorescent probe • 6-carboxy-2′,7′-dichlorodihydrofluorescein diacetate, di(acetoxymethyl ester) (PM.675,43) Cell stimulation products • Hydrogen peroxide (H2O2) 3% Ref. GIFRER (Gifrer Barbezat Laboratory) • Ferrous ammonium sulphate (Fe^2+) • Ferric ammonium sulphate (Fe^3+) • d) Products tested:
For the evaluation of unsaturated fatty hydroxy acid derivatives, the dilutions are prepared in freshly prepared culture medium for a concentration range of 0.02, 0.2, 2 and 20 ng/ml. • e) Protocol. Cell culturing.
Cells from the fibroblast line L929 were cultured in 96-well flat base microplates in 100 μl of DMEM supplemented with 10% foetal calf serum. These were incubated overnight at 37° C. in a humid atmosphere at 5% CO2. The blank plate without cells was evaluated using 6 wells.
Dilutions of the products to be tested and reference molecule were made up in culture medium without foetal calf serum then deposited in 7 wells at a rate of 100 μl per well.
Cells were then incubated for 3 hours at 37° C. in a humid atmosphere at 5% CO2.
Cells were rinsed in PBS 1X at a rate of 100 μl per well. They were then incubated for 30 minutes at 37° C. in a humid atmosphere at 5% CO2 with 50 μl of the H2DCF-DA probe at 5 μM.
After 30 minutes of contact with the probe alone, cells were incubated for 30 minutes at 37° C. in a humid atmosphere at 5% CO2 with the addition of 25 μl of H2O2 at 800 μM and 25 μl of ferrous iron and ferric iron solution at 8 mM in order to obtain final concentrations of 200 μM of H2O2 and 2 mM of ferrous iron and ferric iron.
Cells were then rinsed with PBS 1X at a rate of 100 μl per well then incubated for 30 minutes at 37° C. in a humid atmosphere at 5% CO2 with 100 μl of PBS 1X.
This incubation for 1 h 30 minutes at 37° C. allows intracellular esterases to deacetylate the probe into H2DCF which can be oxidized by the intracellular AOSs into DCF: a fluorescent compound whose formation is proportional to the quantity of intracellular AOSs.
The intensity of fluorescence is read on a cytofluorimeter at λexcitation=485 nm and λemission=530 nm. This reflects the amount of intracellular AOS produced.
The ratio below makes it possible to calculate the % protection against the production of intracellular AOSs for each product concentration tested (because the intensity of fluorescence or IF reflects the release of intracellular AOSs)
• Pre-incubation: 3 h • Number of tests=3 for all compounds. • Number of tests=18 for vit. E

Row | SMILES | % inhibition of IL-8 release (Interleukin 8) | % inhibition (PAR-2 receptors; 10 μg/ml) [%] | % stimulation (PAR-2 receptors; 10 μg/ml) [%] | % inhibition (PAR-2 receptors; 30 μg/ml) [%] | % stimulation (PAR-2 receptors; 30 μg/ml) [%] | % inhibition (PAR-2 receptors; 100 μg/ml) [%] | % stimulation (PAR-2 receptors; 100 μg/ml) [%] | Induction Factor vs Control (CaCl2 1.2 mM) TG1 (transglutaminase 1 (TG1); 1 μg/ml) | Induction Factor vs Control (CaCl2 1.2 mM) TG1 (transglutaminase 1 (TG1); 100 μg/ml) | % membrane lipid protection, Mean [1] [%] | Induction Factor vs Control (CaCl2 1.2 mM) ABCG1 (ABCG1; 1 μg/ml) | Induction Factor vs Control (CaCl2 1.2 mM) ABCG1 (ABCG1; 100 μg/ml) | Induction Factor vs Control (CaCl2 1.2 mM) FATP4 (FATP4; 1 μg/ml) | Induction Factor vs Control (CaCl2 1.2 mM) FATP4 (FATP4; 100 μg/ml) | Induction Factor vs Control (CaCl2 1.2 mM) DES2 (desaturase DES2; 1 μg/ml) | Induction Factor vs Control (CaCl2 1.2 mM) DES2 (desaturase DES2; 100 μg/ml) | inhibition at 0.0002 µg/mL [2] [%]
1 | O=C(O)/C=C/CCCCCCCCCCCCCCCO [n=14, R=H, Rn=H, R1=H, 18-hydroxy-octadec-2t-enoic acid] | Non-active | −10 | 14.68 | 8 | 12.90 | 23 | 11.37 | – | – | – | – | – | – | – | – | – | –
2 | O=C(O)/C=C/CCCCCCCO [n=6, R=H, Rn=H, R1=H, DHA] | – | – | – | – | – | – | – | 1.1 | 12.3 | 52.91 | 1.9 | 6.6 | 1.2 | 2.5 | 1.7 | 11.5 | 33
